Measured values from ChEMBL document CHEMBL1287732, “Development of novel bisubstrate-type inhibitors of histone methyltransferase SET7/9” (Bioorg Med Chem, 2010).
The source made the active and inactive calls. The rule behind the calls is not given here.

target: T1, Histone-lysine N-methyltransferase SETD7 (Homo sapiens) (UniProt Q8WTS6); experiment: Inhibition of human recombinant SET7/9 in cell free system assessed as monomethylation of histone H3 Lys4 residue after 1 hr in presence of 2 uM AdoMet
T1 sequence (whole entry): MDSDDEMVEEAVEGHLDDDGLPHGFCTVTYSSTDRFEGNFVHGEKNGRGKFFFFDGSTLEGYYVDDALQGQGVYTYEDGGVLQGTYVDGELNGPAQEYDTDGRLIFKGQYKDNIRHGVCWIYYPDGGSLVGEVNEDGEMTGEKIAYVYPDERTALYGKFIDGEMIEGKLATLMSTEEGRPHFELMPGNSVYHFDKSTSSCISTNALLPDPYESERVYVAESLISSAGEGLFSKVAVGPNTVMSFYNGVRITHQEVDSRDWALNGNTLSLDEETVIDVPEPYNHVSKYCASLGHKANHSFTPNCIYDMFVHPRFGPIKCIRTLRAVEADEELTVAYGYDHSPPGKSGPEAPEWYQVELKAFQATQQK

Row | Structure (SMILES) | inhibition
1 | CCCCCCNCCN(CC[C@H](N)C(=O)O)C[C@H]1O[C@@H](n2cnc3c(N)ncnc32)[C@H](O)[C@@H]1O | Active
2 | CCCNCCN(CC[C@H](N)C(=O)O)C[C@H]1O[C@@H](n2cnc3c(N)ncnc32)[C@H](O)[C@@H]1O | Active
3 | Nc1ncnc2c1ncn2[C@@H]1O[C@H](CN(CCNCCc2ccccc2)CC[C@H](N)C(=O)O)[C@@H](O)[C@H]1O | Active
4 | CNCCN(CC[C@H](N)C(=O)O)C[C@H]1O[C@@H](n2cnc3c(N)ncnc32)[C@H](O)[C@@H]1O | Active
5 | CCCCCCN(CC[C@H](N)C(=O)O)C[C@H]1O[C@@H](n2cnc3c(N)ncnc32)[C@H](O)[C@@H]1O | inactive
